Results taken from EP4745137A1 (Gluetacs Therapeutics (Shanghai) Co., Ltd., priority 2023, dated 2025).

Key:
CK1α = biological target: T1, CK1α (Homo sapiens, UniProt P48729+Q96SW2); experiment: Western-blot assay of substrate protein degradation in hPBMCs, CK1α; format: cell-based; settings: 24 hours of compound treatment, 50 nM and 500 nM tested (concentration behind the class not stated)
T1 construct: endogenous in cells; host or cells: hPBMCs (Milecell Biotechnologies)

IKZF3 = biological target: T2, IKZF3 (Homo sapiens, UniProt Q96SW2+Q9UKT9); experiment: Western-blot assay of substrate protein degradation in hPBMCs, IKZF3; format: cell-based; settings: 24 hours of compound treatment, 50 nM and 500 nM tested (concentration behind the class not stated)
T2 construct: endogenous in cells; host or cells: hPBMCs (Milecell Biotechnologies)
T2 sequence (Q9UKT9 whole entry): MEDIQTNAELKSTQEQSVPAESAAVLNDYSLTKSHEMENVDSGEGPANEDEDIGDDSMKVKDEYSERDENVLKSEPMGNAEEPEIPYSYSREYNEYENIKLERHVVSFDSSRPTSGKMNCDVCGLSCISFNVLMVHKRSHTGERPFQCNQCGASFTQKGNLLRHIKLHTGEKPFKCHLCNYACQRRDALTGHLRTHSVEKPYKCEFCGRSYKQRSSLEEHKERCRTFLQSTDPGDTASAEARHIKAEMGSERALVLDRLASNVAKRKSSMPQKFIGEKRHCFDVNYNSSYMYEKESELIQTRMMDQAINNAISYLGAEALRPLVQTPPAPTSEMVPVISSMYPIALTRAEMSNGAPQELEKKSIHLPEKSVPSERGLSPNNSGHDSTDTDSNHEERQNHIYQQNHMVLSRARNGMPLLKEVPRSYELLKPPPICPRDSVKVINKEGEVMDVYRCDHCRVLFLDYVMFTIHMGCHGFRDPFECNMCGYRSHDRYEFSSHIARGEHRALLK
T2 sequence (Q96SW2 whole entry): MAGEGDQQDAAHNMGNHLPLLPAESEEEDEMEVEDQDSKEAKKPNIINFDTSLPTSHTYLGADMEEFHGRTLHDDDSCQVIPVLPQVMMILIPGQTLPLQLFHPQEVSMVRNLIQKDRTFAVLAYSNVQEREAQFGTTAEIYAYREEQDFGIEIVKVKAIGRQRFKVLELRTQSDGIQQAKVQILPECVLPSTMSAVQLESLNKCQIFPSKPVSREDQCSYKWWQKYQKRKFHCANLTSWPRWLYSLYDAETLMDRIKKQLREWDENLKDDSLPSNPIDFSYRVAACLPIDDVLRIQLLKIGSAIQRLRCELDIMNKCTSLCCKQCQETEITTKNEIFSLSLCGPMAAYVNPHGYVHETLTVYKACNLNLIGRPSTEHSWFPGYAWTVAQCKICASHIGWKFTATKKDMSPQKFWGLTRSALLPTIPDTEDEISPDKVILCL
T2 sequence (Q16531 whole entry partner): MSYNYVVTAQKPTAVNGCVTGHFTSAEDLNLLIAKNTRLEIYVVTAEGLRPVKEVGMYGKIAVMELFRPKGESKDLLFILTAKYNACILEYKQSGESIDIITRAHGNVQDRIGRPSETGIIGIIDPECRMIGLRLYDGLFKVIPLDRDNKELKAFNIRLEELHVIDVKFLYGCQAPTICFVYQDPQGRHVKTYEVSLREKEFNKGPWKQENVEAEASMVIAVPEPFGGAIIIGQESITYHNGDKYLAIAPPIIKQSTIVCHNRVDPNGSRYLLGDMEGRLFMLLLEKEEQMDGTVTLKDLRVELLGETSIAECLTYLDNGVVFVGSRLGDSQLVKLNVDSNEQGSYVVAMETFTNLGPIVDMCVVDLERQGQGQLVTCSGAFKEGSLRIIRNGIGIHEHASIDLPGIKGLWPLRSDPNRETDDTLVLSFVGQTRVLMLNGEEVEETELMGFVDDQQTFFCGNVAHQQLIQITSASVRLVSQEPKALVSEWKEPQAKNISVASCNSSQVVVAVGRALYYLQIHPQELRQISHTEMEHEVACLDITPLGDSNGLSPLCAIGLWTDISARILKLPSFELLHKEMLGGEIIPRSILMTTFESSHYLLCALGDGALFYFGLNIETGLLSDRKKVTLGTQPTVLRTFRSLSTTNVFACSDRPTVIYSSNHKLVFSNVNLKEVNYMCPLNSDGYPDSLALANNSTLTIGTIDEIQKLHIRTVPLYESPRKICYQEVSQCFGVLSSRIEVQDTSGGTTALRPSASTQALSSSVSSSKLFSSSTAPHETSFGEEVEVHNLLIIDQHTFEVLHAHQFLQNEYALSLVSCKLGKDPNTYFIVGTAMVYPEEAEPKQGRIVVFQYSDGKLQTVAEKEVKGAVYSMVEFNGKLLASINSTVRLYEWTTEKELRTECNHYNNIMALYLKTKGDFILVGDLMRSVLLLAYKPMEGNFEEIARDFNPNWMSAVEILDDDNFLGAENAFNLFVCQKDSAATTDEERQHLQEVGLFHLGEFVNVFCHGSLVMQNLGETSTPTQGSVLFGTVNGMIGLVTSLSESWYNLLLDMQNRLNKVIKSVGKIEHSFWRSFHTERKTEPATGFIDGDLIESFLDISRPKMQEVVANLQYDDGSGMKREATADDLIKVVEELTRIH

WEE1 = biological target: T3, WEE1 (Homo sapiens, UniProt P30291+Q96SW2); experiment: Western-blot assay of substrate protein degradation in hPBMCs, WEE1; format: cell-based; settings: 24 hours of compound treatment, 50 nM and 500 nM tested (concentration behind the class not stated)
T3 construct: endogenous in cells; host or cells: hPBMCs (Milecell Biotechnologies)
T3 sequence (P30291 whole entry): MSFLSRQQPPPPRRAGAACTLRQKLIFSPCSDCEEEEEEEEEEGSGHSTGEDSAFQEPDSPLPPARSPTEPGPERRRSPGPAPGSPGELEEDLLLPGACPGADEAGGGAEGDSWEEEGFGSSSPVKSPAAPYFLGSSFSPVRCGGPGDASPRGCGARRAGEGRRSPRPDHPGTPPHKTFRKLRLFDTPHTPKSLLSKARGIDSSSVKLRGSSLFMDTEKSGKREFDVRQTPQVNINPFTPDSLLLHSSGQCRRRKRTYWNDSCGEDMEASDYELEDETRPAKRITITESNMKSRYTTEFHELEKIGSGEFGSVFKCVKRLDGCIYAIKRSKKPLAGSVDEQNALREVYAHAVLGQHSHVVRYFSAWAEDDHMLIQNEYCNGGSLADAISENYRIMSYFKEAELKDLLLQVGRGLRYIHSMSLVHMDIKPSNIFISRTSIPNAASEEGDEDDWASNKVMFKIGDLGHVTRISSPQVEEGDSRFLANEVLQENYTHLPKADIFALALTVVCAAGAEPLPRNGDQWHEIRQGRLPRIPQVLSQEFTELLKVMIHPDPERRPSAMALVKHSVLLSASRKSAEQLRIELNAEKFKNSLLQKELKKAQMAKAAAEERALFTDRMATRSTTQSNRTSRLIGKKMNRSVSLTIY
T3 sequence (Q96SW2 whole entry): as the sequence (Q96SW2 whole entry) above
T3 sequence (Q16531 whole entry partner): as the sequence (Q16531 whole entry partner) above

GSPT1 = biological target: T4, GSPT1 (Homo sapiens, UniProt P15170+Q96SW2); experiment: Western-blot assay of substrate protein degradation in hPBMCs, GSPT1; format: cell-based; settings: 24 hours of compound treatment, 50 nM and 500 nM tested (concentration behind the class not stated)
T4 construct: endogenous in cells; host or cells: hPBMCs (Milecell Biotechnologies)
T4 sequence (P15170 whole entry): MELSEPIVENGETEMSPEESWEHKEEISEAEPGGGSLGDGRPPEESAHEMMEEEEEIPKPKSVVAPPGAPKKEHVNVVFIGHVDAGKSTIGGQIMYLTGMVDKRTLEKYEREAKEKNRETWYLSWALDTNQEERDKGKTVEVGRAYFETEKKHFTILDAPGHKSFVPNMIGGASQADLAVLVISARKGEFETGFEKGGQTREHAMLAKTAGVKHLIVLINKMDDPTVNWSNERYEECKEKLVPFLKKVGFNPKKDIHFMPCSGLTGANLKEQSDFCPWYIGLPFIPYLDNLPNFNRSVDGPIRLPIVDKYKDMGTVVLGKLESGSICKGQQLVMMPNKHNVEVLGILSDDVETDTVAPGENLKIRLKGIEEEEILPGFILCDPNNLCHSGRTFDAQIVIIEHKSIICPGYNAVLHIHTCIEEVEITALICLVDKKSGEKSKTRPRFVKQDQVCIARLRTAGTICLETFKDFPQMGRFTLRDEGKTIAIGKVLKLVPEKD
T4 sequence (Q96SW2 whole entry): as the sequence (Q96SW2 whole entry) above
T4 sequence (Q16531 whole entry partner): as the sequence (Q16531 whole entry partner) above

IKZF1 = biological target: T5, IKZF1 (Homo sapiens, UniProt Q13422+Q96SW2); experiment: Western-blot assay of substrate protein degradation in hPBMCs, IKZF1; format: cell-based; settings: 24 hours of compound treatment, 50 nM and 500 nM tested (concentration behind the class not stated)
T5 construct: endogenous in cells; host or cells: hPBMCs (Milecell Biotechnologies)
T5 sequence (Q13422 whole entry): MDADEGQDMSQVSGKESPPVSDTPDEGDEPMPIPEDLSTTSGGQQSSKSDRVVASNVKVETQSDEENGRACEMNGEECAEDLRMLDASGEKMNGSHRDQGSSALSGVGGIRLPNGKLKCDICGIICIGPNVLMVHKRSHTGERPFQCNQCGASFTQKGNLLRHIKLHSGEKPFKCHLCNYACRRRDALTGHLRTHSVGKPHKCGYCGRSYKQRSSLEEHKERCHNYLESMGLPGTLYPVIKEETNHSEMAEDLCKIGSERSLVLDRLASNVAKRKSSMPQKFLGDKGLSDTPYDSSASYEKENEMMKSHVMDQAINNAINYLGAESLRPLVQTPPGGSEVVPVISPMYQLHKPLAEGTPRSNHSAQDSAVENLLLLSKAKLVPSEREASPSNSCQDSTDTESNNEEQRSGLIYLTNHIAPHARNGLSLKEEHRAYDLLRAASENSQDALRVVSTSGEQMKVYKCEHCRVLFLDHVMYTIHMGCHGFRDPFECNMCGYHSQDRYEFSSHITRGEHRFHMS
T5 sequence (Q96SW2 whole entry): as the sequence (Q96SW2 whole entry) above
T5 sequence (Q16531 whole entry partner): as the sequence (Q16531 whole entry partner) above

IKZF2 = biological target: T6, IKZF2 (Homo sapiens, UniProt Q96SW2+Q9UKS7); experiment: Western-blot assay of substrate protein degradation in hPBMCs, IKZF2; format: cell-based; settings: 24 hours of compound treatment, 50 nM and 500 nM tested (concentration behind the class not stated)
T6 construct: endogenous in cells; host or cells: hPBMCs (Milecell Biotechnologies)

[1] = biological target: T7, human Cereblon WT GST-tagged protein (Homo sapiens, UniProt Q96SW2); experiment: CRBN-binding affinity by HTRF (CEREBLON BINDING kit); settings: HTRF inhibitory activity, CEREBLON BINDING kit; read-out: HTRF IC50
T7 construct: purchased CISBIO 64BDCRBNPEH
T7 sequence (Q96SW2 whole entry): as the sequence (Q96SW2 whole entry) above

T1 sequence (P48729 whole entry): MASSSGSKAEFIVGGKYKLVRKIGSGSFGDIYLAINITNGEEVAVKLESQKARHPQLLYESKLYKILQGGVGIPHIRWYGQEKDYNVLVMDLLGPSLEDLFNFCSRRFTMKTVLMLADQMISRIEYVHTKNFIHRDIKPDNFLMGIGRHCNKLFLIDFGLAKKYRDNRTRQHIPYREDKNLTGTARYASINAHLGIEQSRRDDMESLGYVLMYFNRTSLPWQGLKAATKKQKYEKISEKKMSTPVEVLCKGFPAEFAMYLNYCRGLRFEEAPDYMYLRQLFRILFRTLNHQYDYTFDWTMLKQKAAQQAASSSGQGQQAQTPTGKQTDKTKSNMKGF
T1 sequence (Q96SW2 whole entry): as the sequence (Q96SW2 whole entry) above
T1 sequence (Q16531 whole entry partner): as the sequence (Q16531 whole entry partner) above

Compound: O=C1CCC(N2C(=O)c3ccc(CN4CCC(c5ncnc6sc7c(c56)CCCC7)CC4)cc3C2=O)C(=O)N1 (stereo not shown) [GT-06649, 2-(2,6-dioxopiperidin-3-yl)-5-((4-(5,6,7,8-tetrahydrobenzo[4,5]thieno[2,3-d]pyrimidin-4-yl)piperidin-1-yl)methyl)isoindoline-1,3-dione]
- CK1a substrate protein remaining % (CK1α): A (0% ≤ substrate protein remaining % ≤ 80%)
- IKZF3 substrate protein remaining % (IKZF3): A (0% ≤ substrate protein remaining % ≤ 80%)
- Weel substrate protein remaining % (WEE1): A (0% ≤ substrate protein remaining % ≤ 80%)
- GSPT1 substrate protein remaining % (GSPT1): A (0% ≤ substrate protein remaining % ≤ 80%)
- IKZF 1 substrate protein remaining % (IKZF1): B (80%< substrate protein remaining %≤ 100%)
- IKZF2 substrate protein remaining % (IKZF2): A (0% ≤ substrate protein remaining % ≤ 80%)
- IC50 [1]: 1500 to 1900 nM

Compound: O=C1CCC(N2C(=O)c3ccc(CN4CCC(c5ncnc6sc7c(c56)CCC7)CC4)cc3C2=O)C(=O)N1 (stereo not shown) [GT-06650, 5-((4-(6,7-dihydro-5H-cyclopenta[4,5]thieno[2,3-d]pyrimidin-4-yl)piperidin-1-yl)methyl)-2-(2,6-dioxopiperidin-3-yl)isoindoline-1,3-dione]
- CK1a substrate protein remaining % (CK1α): B (80%< substrate protein remaining %≤ 100%)
- IKZF3 substrate protein remaining % (IKZF3): B (80%< substrate protein remaining %≤ 100%)
- Weel substrate protein remaining % (WEE1): A (0% ≤ substrate protein remaining % ≤ 80%)
- GSPT1 substrate protein remaining % (GSPT1): B (80%< substrate protein remaining %≤ 100%)
- IKZF 1 substrate protein remaining % (IKZF1): B (80%< substrate protein remaining %≤ 100%)
- IKZF2 substrate protein remaining % (IKZF2): B (80%< substrate protein remaining %≤ 100%)
- IC50 [1]: 1500 to 1900 nM

Compound: Cc1nc(C2CCN(Cc3ccc4c(c3)C(=O)N(C3CCC(=O)NC3=O)C4=O)CC2)c2c3c(sc2n1)CCC3 (stereo not shown) [GT-06651, 2-(2,6-dioxopiperidin-3-yl)-5-((4-(2-methyl-6,7-dihydro-5H-cyclopenta[4,5]thieno[2,3-d]pyrimidin-4-yl)piperidin-1-yl)methyl)isoindoline-1,3-dione]
- CK1a substrate protein remaining % (CK1α): B (80%< substrate protein remaining %≤ 100%)
- IKZF3 substrate protein remaining % (IKZF3): B (80%< substrate protein remaining %≤ 100%)
- Weel substrate protein remaining % (WEE1): A (0% ≤ substrate protein remaining % ≤ 80%)
- GSPT1 substrate protein remaining % (GSPT1): B (80%< substrate protein remaining %≤ 100%)
- IKZF 1 substrate protein remaining % (IKZF1): B (80%< substrate protein remaining %≤ 100%)
- IKZF2 substrate protein remaining % (IKZF2): A (0% ≤ substrate protein remaining % ≤ 80%)
- IC50 [1]: 1000 to 1500 nM

Compound: O=C1CCC(N2C(=O)c3ccc(CN4CC=C(c5ncnc6sccc56)CC4)cc3C2=O)C(=O)N1 (stereo not shown) [GT-06653, 2-(2,6-dioxopiperidin-3-yl)-5-((4-(thieno[2,3-d]pyrimidin-4-yl)-3,6-dihydropyridin-1(2H)-yl)methyl)isoindoline-1,3-dione]
- CK1a substrate protein remaining % (CK1α): B (80%< substrate protein remaining %≤ 100%)
- IKZF3 substrate protein remaining % (IKZF3): A (0% ≤ substrate protein remaining % ≤ 80%)
- Weel substrate protein remaining % (WEE1): A (0% ≤ substrate protein remaining % ≤ 80%)
- GSPT1 substrate protein remaining % (GSPT1): A (0% ≤ substrate protein remaining % ≤ 80%)
- IKZF 1 substrate protein remaining % (IKZF1): A (0% ≤ substrate protein remaining % ≤ 80%)
- IKZF2 substrate protein remaining % (IKZF2): B (80%< substrate protein remaining %≤ 100%)
- IC50 [1]: 500 to 1000 nM

Compound: Cc1cc2c(C3=CCN(Cc4ccc5c(c4)C(=O)N(C4CCC(=O)NC4=O)C5=O)CC3)ncnc2s1 (stereo not shown) [GT-06655, 2-(2,6-dioxopiperidin-3-yl)-5-((4-(6-methylthieno[2,3-d]pyrimidin-4-yl)-3,6-dihydropyridin-1(2H)-yl)methyl)isoindoline-1,3-dione]
- CK1a substrate protein remaining % (CK1α): B (80%< substrate protein remaining %≤ 100%)
- IKZF3 substrate protein remaining % (IKZF3): A (0% ≤ substrate protein remaining % ≤ 80%)
- Weel substrate protein remaining % (WEE1): A (0% ≤ substrate protein remaining % ≤ 80%)
- GSPT1 substrate protein remaining % (GSPT1): A (0% ≤ substrate protein remaining % ≤ 80%)
- IKZF 1 substrate protein remaining % (IKZF1): A (0% ≤ substrate protein remaining % ≤ 80%)
- IKZF2 substrate protein remaining % (IKZF2): A (0% ≤ substrate protein remaining % ≤ 80%)
- IC50 [1]: 500 to 1000 nM

Compound: Cc1sc2ncnc(C3=CCN(Cc4ccc5c(c4)C(=O)N(C4CCC(=O)NC4=O)C5=O)CC3)c2c1C (stereo not shown) [GT-06657, 5-((4-(5,6-dimethylthieno[2,3-d]pyrimidin-4-yl)-3,6-dihydropyridin-1 (2H)-yl)methyl)-2-(2,6-dioxopiperidin-3-yl)isoindoline-1,3-dione]
- CK1a substrate protein remaining % (CK1α): B (80%< substrate protein remaining %≤ 100%)
- IKZF3 substrate protein remaining % (IKZF3): B (80%< substrate protein remaining %≤ 100%)
- Weel substrate protein remaining % (WEE1): A (0% ≤ substrate protein remaining % ≤ 80%)
- GSPT1 substrate protein remaining % (GSPT1): A (0% ≤ substrate protein remaining % ≤ 80%)
- IKZF 1 substrate protein remaining % (IKZF1): A (0% ≤ substrate protein remaining % ≤ 80%)
- IKZF2 substrate protein remaining % (IKZF2): B (80%< substrate protein remaining %≤ 100%)
- IC50 [1]: 1000 to 1500 nM

Compound: O=C1CCC(N2C(=O)c3ccc(CN4CC=C(c5ncnc6scc(-c7ccccc7)c56)CC4)cc3C2=O)C(=O)N1 (stereo not shown) [GT-06676, 2-(2,6-dioxopiperidin-3-yl)-5-((4-(5-phenylthieno[2,3-d]pyrimidin-4-yl)-3,6-dihydropyridin-1(2H)-yl)methyl)isoindoline-1,3-dione]
- CK1a substrate protein remaining % (CK1α): A (0% ≤ substrate protein remaining % ≤ 80%)
- IKZF3 substrate protein remaining % (IKZF3): B (80%< substrate protein remaining %≤ 100%)
- Weel substrate protein remaining % (WEE1): A (0% ≤ substrate protein remaining % ≤ 80%)
- GSPT1 substrate protein remaining % (GSPT1): B (80%< substrate protein remaining %≤ 100%)
- IKZF 1 substrate protein remaining % (IKZF1): B (80%< substrate protein remaining %≤ 100%)
- IKZF2 substrate protein remaining % (IKZF2): B (80%< substrate protein remaining %≤ 100%)
- IC50 [1]: 1000 to 1500 nM

Compound: Cc1nc(C2=CCN(Cc3ccc4c(c3)C(=O)N(C3CCC(=O)NC3=O)C4=O)CC2)c2c(-c3ccccc3)csc2n1 (stereo not shown) [GT-06677, 2-(2,6-dioxopiperidin-3-yl)-5-((4-(2-methyl-5-phenylthieno[2,3-d]pyrimidin-4-yl)-3,6-dihydropyridin-1(2H)-yl)methyl)isoindoline-1,3-dione]
- CK1a substrate protein remaining % (CK1α): A (0% ≤ substrate protein remaining % ≤ 80%)
- IKZF3 substrate protein remaining % (IKZF3): B (80%< substrate protein remaining %≤ 100%)
- Weel substrate protein remaining % (WEE1): B (80%< substrate protein remaining %≤ 100%)
- GSPT1 substrate protein remaining % (GSPT1): B (80%< substrate protein remaining %≤ 100%)
- IKZF 1 substrate protein remaining % (IKZF1): B (80%< substrate protein remaining %≤ 100%)
- IKZF2 substrate protein remaining % (IKZF2): B (80%< substrate protein remaining %≤ 100%)
- IC50 [1]: 500 to 1000 nM

Compound: Cc1nc(C2=CCN(Cc3ccc4c(c3)C(=O)N(C3CCC(=O)NC3=O)C4=O)CC2)c2c3c(sc2n1)CCC3 (stereo not shown) [GT-06682, 2-(2,6-dioxopiperidin-3-yl)-5-((4-(2-methyl-6,7-dihydro-5H-cyclopenta[4,5]thieno[2,3-d]pyrimidin-4-yl)-3,6-dihydropyridin-1(2H)-yl)methyl)isoindoline-1,3-dione]
- CK1a substrate protein remaining % (CK1α): B (80%< substrate protein remaining %≤ 100%)
- IKZF3 substrate protein remaining % (IKZF3): A (0% ≤ substrate protein remaining % ≤ 80%)
- Weel substrate protein remaining % (WEE1): A (0% ≤ substrate protein remaining % ≤ 80%)
- GSPT1 substrate protein remaining % (GSPT1): A (0% ≤ substrate protein remaining % ≤ 80%)
- IKZF 1 substrate protein remaining % (IKZF1): B (80%< substrate protein remaining %≤ 100%)
- IKZF2 substrate protein remaining % (IKZF2): A (0% ≤ substrate protein remaining % ≤ 80%)
- IC50 [1]: 1500 to 1900 nM

Compound: O=C1CCC(N2C(=O)c3ccc(CN4CCC(c5c[nH]c6ncccc56)CC4)cc3C2=O)C(=O)N1 (stereo not shown) [GT-06705, 5-((4-(1H-pyrrolo[2,3-b]pyridin-3-yl)piperidin-1-yl)methyl)-2-(2,6-dioxopiperidin-3-yl)isoindoline-1,3-dione]
- CK1a substrate protein remaining % (CK1α): B (80%< substrate protein remaining %≤ 100%)
- IKZF3 substrate protein remaining % (IKZF3): B (80%< substrate protein remaining %≤ 100%)
- Weel substrate protein remaining % (WEE1): A (0% ≤ substrate protein remaining % ≤ 80%)
- GSPT1 substrate protein remaining % (GSPT1): A (0% ≤ substrate protein remaining % ≤ 80%)
- IKZF 1 substrate protein remaining % (IKZF1): B (80%< substrate protein remaining %≤ 100%)
- IKZF2 substrate protein remaining % (IKZF2): B (80%< substrate protein remaining %≤ 100%)
- IC50 [1]: 1500 to 1900 nM
